From ChEMBL document CHEMBL1909046, “DrugMatrix in vitro pharmacology data”

What was measured:
Substance-K receptor = molecular target: T1, Substance-K receptor (Homo sapiens, UniProt P21452); type: cell membranes, CHO, Membrane; also: in other assays of this panel Not Active means under 50% inhibition at 10 µM
T1 sequence (P21452 whole entry): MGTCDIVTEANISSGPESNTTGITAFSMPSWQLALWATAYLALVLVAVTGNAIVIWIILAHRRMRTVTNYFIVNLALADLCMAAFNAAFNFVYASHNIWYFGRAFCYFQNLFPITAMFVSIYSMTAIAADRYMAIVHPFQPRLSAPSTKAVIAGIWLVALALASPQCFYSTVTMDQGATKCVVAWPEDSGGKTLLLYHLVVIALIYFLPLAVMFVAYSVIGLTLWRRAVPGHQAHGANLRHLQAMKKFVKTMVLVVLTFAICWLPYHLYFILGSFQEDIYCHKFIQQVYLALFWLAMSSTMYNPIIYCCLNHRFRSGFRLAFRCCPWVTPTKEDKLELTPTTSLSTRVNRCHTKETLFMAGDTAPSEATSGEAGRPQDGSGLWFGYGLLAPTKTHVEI

[1] = molecular target: T2, Alpha-1A adrenergic receptor (Rattus norvegicus, UniProt P43140); experiment: DRUGMATRIX: Alpha-1A adrenergic receptor radioligand binding (ligand: prazosin); type: cell membranes, Wistar, Submaxillary gland, Membrane; conditions: Not Active = under 50% inhibition at 10 µM; for Ki: read-out: Ki
T2 sequence (P43140 whole entry): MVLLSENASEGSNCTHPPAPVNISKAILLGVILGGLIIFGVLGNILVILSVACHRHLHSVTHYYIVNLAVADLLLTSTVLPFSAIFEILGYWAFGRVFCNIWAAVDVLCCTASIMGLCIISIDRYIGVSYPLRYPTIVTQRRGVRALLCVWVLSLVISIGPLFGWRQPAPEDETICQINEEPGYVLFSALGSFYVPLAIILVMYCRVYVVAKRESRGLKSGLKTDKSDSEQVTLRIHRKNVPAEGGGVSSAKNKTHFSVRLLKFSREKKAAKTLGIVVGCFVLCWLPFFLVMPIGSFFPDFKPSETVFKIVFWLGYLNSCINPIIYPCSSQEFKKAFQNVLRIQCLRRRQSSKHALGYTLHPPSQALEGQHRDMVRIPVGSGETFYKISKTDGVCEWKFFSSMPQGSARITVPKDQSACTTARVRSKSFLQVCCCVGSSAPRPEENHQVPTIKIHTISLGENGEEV

[2] = DRUGMATRIX: Platelet-Derived Growth Factor (PDGF) radioligand binding (ligand: [125I] PDGF); type: cell-based; conditions: nih3t3; Not Active = under 50% inhibition at 10 µM
[3] = molecular target: Tyrosine-protein kinase Lck (Homo sapiens, UniProt P06239); experiment: DRUGMATRIX: Protein Tyrosine Kinase, LCK enzyme inhibition (substrate: Poly(Glu:Tyr)); type: cell-based, Insect cells; conditions: Not Active = under 50% inhibition at 10 µM
Chain of Tyrosine-protein kinase Lck (P06239 whole entry): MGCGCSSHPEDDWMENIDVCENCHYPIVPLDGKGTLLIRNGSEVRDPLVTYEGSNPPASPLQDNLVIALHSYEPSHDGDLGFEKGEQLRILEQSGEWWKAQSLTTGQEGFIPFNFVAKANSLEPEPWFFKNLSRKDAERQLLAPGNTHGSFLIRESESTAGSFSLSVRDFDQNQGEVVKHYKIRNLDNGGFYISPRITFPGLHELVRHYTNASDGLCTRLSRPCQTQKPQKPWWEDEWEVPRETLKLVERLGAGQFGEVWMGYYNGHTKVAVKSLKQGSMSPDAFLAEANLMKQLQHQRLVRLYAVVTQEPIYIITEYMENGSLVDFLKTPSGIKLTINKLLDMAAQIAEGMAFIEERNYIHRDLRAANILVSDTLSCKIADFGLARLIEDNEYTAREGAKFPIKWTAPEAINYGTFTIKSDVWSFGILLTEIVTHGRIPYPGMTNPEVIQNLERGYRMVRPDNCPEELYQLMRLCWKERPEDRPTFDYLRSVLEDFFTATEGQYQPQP

Cathepsin G = molecular target: T3, Cathepsin G (Homo sapiens, UniProt P08311); type: tissue-based; conditions: neutrophil;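 also: inhibition of Cathepsin G enzyme activity, tested on an AMC-conjugated peptide substrate; in other assays of this panel Not Active means under 50% inhibition at 10 µM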
T3 sequence (P08311 whole entry): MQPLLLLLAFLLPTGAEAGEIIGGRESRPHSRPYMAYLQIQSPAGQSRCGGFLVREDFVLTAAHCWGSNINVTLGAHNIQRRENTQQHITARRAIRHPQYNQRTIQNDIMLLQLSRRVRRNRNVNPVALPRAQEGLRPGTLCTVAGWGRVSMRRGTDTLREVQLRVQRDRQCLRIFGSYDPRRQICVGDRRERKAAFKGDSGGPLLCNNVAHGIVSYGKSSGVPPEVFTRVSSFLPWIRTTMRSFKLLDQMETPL

[4] = DRUGMATRIX: Interleukin IL-1 radioligand binding (ligand: [125I] interleukin 1beta); type: cell membranes, Membrane; conditions: nih3t3; Not Active = under 50% inhibition at 10 µM
Estrogen receptor beta = Estrogen receptor beta (Homo sapiens, UniProt Q92731); conditions: sf9; also: in other assays of this panel Not Active means under 50% inhibition at 10 µM
Chain of Estrogen receptor beta (Q92731 whole entry): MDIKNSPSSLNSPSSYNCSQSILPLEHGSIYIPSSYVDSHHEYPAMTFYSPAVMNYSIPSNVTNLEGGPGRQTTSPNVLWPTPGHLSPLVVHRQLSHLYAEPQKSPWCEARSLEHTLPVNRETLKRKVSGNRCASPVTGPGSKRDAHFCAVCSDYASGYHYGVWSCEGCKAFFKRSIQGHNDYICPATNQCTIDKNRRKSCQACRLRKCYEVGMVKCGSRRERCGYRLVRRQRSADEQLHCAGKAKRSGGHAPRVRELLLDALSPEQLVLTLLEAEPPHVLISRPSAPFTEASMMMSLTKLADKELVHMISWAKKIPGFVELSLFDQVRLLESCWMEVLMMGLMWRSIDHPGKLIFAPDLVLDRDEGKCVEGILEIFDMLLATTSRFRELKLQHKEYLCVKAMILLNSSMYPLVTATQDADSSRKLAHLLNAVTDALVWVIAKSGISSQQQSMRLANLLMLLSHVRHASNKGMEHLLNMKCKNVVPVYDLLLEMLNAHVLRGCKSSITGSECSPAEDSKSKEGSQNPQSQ

SMILES	IC50 (Substance-K receptor; cho)	IC50 [1]	IC50 [2]	Ki [2]	IC50 ([3]; insect cells)	IC50 (Cathepsin G)	IC50 [4]	Ki [4]	IC50 (Estrogen receptor beta)	IC50 (Substance-K receptor; read-out: IC50)	Ki (Substance-K receptor; read-out: Ki)	IC50 ([1]; read-out: IC50)	Ki [1]	IC50 ([3]; read-out: IC50)
CC(C)(Oc1ccc(C2CC2(Cl)Cl)cc1)C(=O)O (stereo not given) [CIPROFIBRATE]	Not Active	Not Active	Not Active	Not Active	Not Active	Not Active	Not Active	Not Active	Not Active	–	–	–	–	–
CCC[C@@H]1C[C@@H](C(=O)N[C@@H]([C@H]2O[C@H](SC)[C@H](O)[C@@H](O)[C@H]2O)[C@H](C)Cl)N(C)C1 [CLINDAMYCIN]	Not Active	Not Active	Not Active	Not Active	Not Active	Not Active	Not Active	Not Active	Not Active	–	–	–	–	–
O=C(O)c1cc(=O)c2c(OCC(O)COc3cccc4oc(C(=O)O)cc(=O)c34)cccc2o1 [CROMOLYN]	Not Active	Not Active	Not Active	Not Active	Not Active	Not Active	Not Active	Not Active	Not Active	–	–	–	–	–
O=P1(N(CCCl)CCCl)NCCCO1 (stereo not given) [CYCLOPHOSPHAMIDE ANHYDROUS]	Not Active	Not Active	Not Active	Not Active	Not Active	Not Active	Not Active	Not Active	Not Active	–	–	–	–	–
CC(=O)O[C@]1(C(C)=O)CC[C@H]2[C@@H]3C=C(Cl)C4=CC(=O)[C@@H]5C[C@@H]5[C@]4(C)[C@H]3CC[C@@]21C [CYPROTERONE ACETATE]	Not Active	Not Active	Not Active	Not Active	Not Active	Not Active	Not Active	Not Active	Not Active	–	–	–	–	–
Nc1nc(N)nc(NC2CC2)n1 [CYROMAZINE]	Not Active	Not Active	Not Active	Not Active	Not Active	Not Active	Not Active	Not Active	Not Active	–	–	–	–	–
C#C[C@]1(O)CC[C@H]2[C@@H]3CCC4=Cc5oncc5C[C@]4(C)[C@H]3CC[C@@]21C [DANAZOL]	–	Not Active	Not Active	Not Active	Not Active	Not Active	Not Active	Not Active	Not Active	26600 nM	8860 nM	–	–	–
C[C@H](C(=O)O)c1cccc(C(=O)c2ccccc2)c1 [DEXKETOPROFEN]	Not Active	Not Active	Not Active	Not Active	Not Active	Not Active	Not Active	Not Active	Not Active	–	–	–	–	–
CN1C[C@H](C(=O)N[C@]2(C)O[C@@]3(O)[C@@H]4CCCN4C(=O)[C@H](Cc4ccccc4)N3C2=O)C[C@@H]2c3cccc4[nH]cc(c34)C[C@H]21 [DIHYDROERGOTAMINE]	Not Active	–	Not Active	Not Active	Not Active	Not Active	Not Active	Not Active	Not Active	–	–	5.03 nM	2.03 nM	–
Cc1c(N(C)CS(=O)(=O)[O-])c(=O)n(-c2ccccc2)n1C.[Na+] [DIPYRONE SODIUM]	Not Active	Not Active	Not Active	Not Active	Not Active	Not Active	Not Active	Not Active	Not Active	–	–	–	–	–
CC(CCc1ccc(O)cc1)NCCc1ccc(O)c(O)c1 (stereo not given) [DOBUTAMINE]	Not Active	–	Not Active	Not Active	–	Not Active	Not Active	Not Active	Not Active	–	–	110 nM	45 nM	5520 nM
CCn1cc(C(=O)O)c(=O)c2cc(F)c(N3CCNCC3)nc21 [ENOXACIN]	Not Active	Not Active	Not Active	Not Active	Not Active	Not Active	Not Active	Not Active	Not Active	–	–	–	–	–
CCC(=O)O[C@H]1[C@H](O[C@@H]2[C@@H](C)[C@H](O[C@H]3C[C@@](C)(OC)[C@@H](O)[C@H](C)O3)[C@@H](C)C(=O)O[C@H](CC)[C@@](C)(O)[C@H](O)[C@@H](C)C(=O)[C@H](C)C[C@@]2(C)O)O[C@H](C)C[C@@H]1N(C)C [ERYTHROMYCIN PROPIONATE]	Not Active	Not Active	Not Active	Not Active	Not Active	Not Active	Not Active	Not Active	Not Active	–	–	–	–	–
C#C[C@]1(O)CC[C@H]2[C@@H]3CCc4cc(O)ccc4[C@H]3CC[C@@]21C [ETHINYL ESTRADIOL]	Not Active	Not Active	Not Active	Not Active	Not Active	Not Active	Not Active	Not Active	Not Active	–	–	–	–	–
CC(=O)OCC(CCn1cnc2cnc(N)nc21)COC(C)=O [FAMCICLOVIR]	Not Active	Not Active	Not Active	Not Active	Not Active	Not Active	Not Active	Not Active	Not Active	–	–	–	–	–
CCOC(=O)C1=C(C)NC(C)=C(C(=O)OC)C1c1cccc(Cl)c1Cl (stereo not given) [FELODIPINE]	Not Active	Not Active	Not Active	Not Active	Not Active	Not Active	Not Active	Not Active	Not Active	–	–	–	–	–
CC(C(=O)O)c1ccc(-c2ccccc2)c(F)c1 (stereo not given) [FLURBIPROFEN]	Not Active	Not Active	Not Active	Not Active	Not Active	Not Active	Not Active	Not Active	Not Active	–	–	–	–	–
Cc1cn[nH]c1 [FOMEPIZOLE]	Not Active	Not Active	Not Active	Not Active	Not Active	Not Active	Not Active	Not Active	Not Active	–	–	–	–	–
NC[C@@H]1O[C@H](O[C@H]2[C@@H](O)[C@H](O[C@@H]3[C@@H](O)[C@H](N)C[C@H](N)[C@H]3O[C@H]3O[C@H](CN)[C@@H](O)[C@H](O)[C@H]3N)O[C@@H]2CO)[C@H](N)[C@@H](O)[C@@H]1O [FRAMYCETIN]	Not Active	Not Active	Not Active	Not Active	Not Active	Not Active	Not Active	Not Active	Not Active	–	–	–	–	–
C[C@H]([C@](O)(Cn1cncn1)c1ccc(F)cc1F)S(C)(=O)=O [GENACONAZOLE]	Not Active	Not Active	Not Active	Not Active	Not Active	Not Active	Not Active	Not Active	Not Active	–	–	–	–	–
Cc1cnc(C(=O)NCCc2ccc(S(=O)(=O)NC(=O)NC3CCCCC3)cc2)cn1 [GLIPIZIDE]	Not Active	Not Active	Not Active	Not Active	Not Active	Not Active	Not Active	Not Active	Not Active	–	–	–	–	–
Cc1c(F)c(N2CCNC(C)C2)cc2c1c(=O)c(C(=O)O)cn2C1CC1 (stereo not given) [GREPAFLOXACIN]	Not Active	Not Active	Not Active	Not Active	Not Active	Not Active	Not Active	Not Active	Not Active	–	–	–	–	–
COc1ccccc1OCC(O)CO (stereo not given) [GUAIFENESIN]	Not Active	Not Active	Not Active	Not Active	Not Active	Not Active	Not Active	Not Active	Not Active	–	–	–	–	–
